One assay concerns the target Recombinant HDAC1 (Homo sapiens (Human), UniProt Q13547). Description: HDAC1 inhibition, Fluor de Lys fluorescent enzyme assay. As to conditions: 3 hours pre-incubation at room temp; 6 nM enzyme; 16 μM Fluor de Lys substrate; duplicate. Format: biochemical. From the text: (§1) Recombinant HDAC1 (cat #: 50051) and HDAC3/NCor2 (cat #: 50003) enzymes were purchased from BPS Bioscience (San Diego, CA, US). Assay reagents for the detection of HDAC enzyme activity (Fluor de Lys®—Green substrate and Developer kits) were purchased from Enzo Life Science (Farmingdale, NY, US). Plates used to conduct the enzyme reaction were Proxiplate-384 (cat #: 6008280) Plus from PerkinElmer (Waltham, MA, US). TSA, an HDAC inhibitor, was purchased from Enzo Life Science (cat #BML-GR309-9090) The remainder of the reagents used to prepare the assay buffer were purchased from Sigma-Aldrich (St Louis, MO, US). Unless stated otherwise, HDAC1 and 3 assays were conducted in 50 mM Tris buffer, pH 8, 137 mM NaCl, 2.7 mM KCl, 0.01% BSA.
(§2) IC50 determination for HDAC1 and HDAC3—Prior to adding reagents, 50 nL/well of compound were added to Proxiplates using an Echo dispenser instrument (Beckman Coulter, CA, US). After addition of compound, 2.5 μL/well of 2× enzyme solution was added and the enzyme was pre-incubated with compound for 3 hours at room temp. (˜22° C.). After the pre-incubation period, the enzyme reaction was initiated by adding 2.5 μL/well of 2× Fluor de Lys® substrate solution. The assay reaction was stopped after one hour by adding 5 μl/well of a 0.66× Developer solution containing TSA (3.2 μM). The final product of the enzyme reaction was read using a Spectramax plate reader instrument (Molecular Devices, CA, US) using a fluorescent readout (Ex 360 nm/Em 460 nm). The final enzyme concentrations in the assay buffer for HDAC1 and 3 were 6 and 1.2 nM, respectively. The final Fluor de Lys® substrate concentration in the assay buffer was 16 μM for all HDAC enzymes. IC50 values were determined using the following equation: […]
(§3) Where Efree and Eo are the free and total amount of HDAC enzyme in the reaction mixture, n is the hill coefficient, I is the free inhibitor concentration, and IC50 is the measure of the potency equivalent to the inhibitor concentration that leads to a 50% occupancy of the total enzyme. Each data was generated in duplicate.

The target of another assay is HDAC3/NCor2 (Homo sapiens (Human), UniProt O15379). Description: HDAC3 inhibition, Fluor de Lys fluorescent enzyme assay. The assay is classed as biochemical. As to conditions: 3 hours pre-incubation at room temp; 1.2 nM enzyme; 16 μM Fluor de Lys substrate; duplicate.
Chain of HDAC3/NCor2 (O15379 whole entry): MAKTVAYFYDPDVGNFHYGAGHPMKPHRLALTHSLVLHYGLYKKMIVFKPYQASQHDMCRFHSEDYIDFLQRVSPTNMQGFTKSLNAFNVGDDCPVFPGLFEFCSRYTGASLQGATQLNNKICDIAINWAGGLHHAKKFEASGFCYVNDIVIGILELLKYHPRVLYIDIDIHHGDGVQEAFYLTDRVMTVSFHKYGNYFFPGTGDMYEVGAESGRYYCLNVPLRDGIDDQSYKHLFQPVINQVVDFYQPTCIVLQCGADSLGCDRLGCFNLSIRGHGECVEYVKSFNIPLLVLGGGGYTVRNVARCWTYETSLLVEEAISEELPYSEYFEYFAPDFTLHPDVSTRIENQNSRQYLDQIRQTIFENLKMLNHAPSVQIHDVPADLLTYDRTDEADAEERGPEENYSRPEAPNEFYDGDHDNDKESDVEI
Chain of HDAC3/NCor2 (Q9Y618 395-489 partner): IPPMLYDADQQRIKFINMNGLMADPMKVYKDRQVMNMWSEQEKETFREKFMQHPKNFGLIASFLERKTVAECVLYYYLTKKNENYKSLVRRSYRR
Source text: as §1, §2, §3

Some results are limits rather than exact numbers.

The source of these data is patent publication US20250136570A1 (Tango Therapeutics, Inc., priority 2021, published 2025).

The IC50 is the concentration at which inhibition is half-maximal.

Chain of Recombinant HDAC1 (Q13547 whole entry): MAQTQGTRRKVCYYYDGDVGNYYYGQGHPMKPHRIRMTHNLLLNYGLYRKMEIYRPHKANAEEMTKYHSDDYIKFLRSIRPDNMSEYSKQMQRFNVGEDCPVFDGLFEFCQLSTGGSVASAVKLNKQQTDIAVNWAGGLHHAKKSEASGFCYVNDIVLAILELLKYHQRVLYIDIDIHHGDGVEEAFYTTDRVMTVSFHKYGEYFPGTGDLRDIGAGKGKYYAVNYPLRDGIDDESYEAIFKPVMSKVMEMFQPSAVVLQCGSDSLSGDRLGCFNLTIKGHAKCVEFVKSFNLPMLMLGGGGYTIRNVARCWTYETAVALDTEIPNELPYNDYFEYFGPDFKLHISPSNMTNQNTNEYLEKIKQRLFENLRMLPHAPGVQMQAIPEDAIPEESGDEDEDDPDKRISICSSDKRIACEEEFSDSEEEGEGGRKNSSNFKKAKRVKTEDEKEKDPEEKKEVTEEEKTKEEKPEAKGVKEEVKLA

Take `CCN=S(C)(=O)c1ccc2oc(C(=O)Nc3cc(-c4ccc(F)cc4)ccc3N)cc2c1` (stereo not shown) [Compound 237, N-[2-amino-5-(4-fluorophenyl)phenyl]-5-(N-ethyl-S-methyl-sulfonimidoyl)benzofuran-2-carboxamide]: the IC50 at Recombinant HDAC1 was < 100 nM; at HDAC3/NCor2, 500 to 2000 nM. For the compound `CS(=N)(=O)c1ccc(C(=O)Nc2cc(-c3ccc(F)cc3)ccc2N)s1` (stereo not shown) [Compound 161, N-[2-amino-5-(4-fluorophenyl)phenyl]-5-(methylsulfonimidoyl)thiophene-2-carboxamide], the IC50 at Recombinant HDAC1 is < 100 nM; on HDAC3/NCor2, 100 to 500 nM. Compound `Nc1ccc(-c2ccc(F)cc2)cc1NC(=O)c1ccc(S2(=O)=NCCC2)nc1` (stereo not shown) [Compound 178, N-[2-amino-5-(4-fluorophenyl)phenyl]-6-(1-oxo-4,5-dihydro-3H-isothiazol-1-yl)pyridine-3-carboxamide] had a 50% inhibitory concentration (IC50) on HDAC3/NCor2 of 500 to 2000 nM.

`Cc1ccc(-c2ccc(N)c(NC(=O)c3ccc(S(C)(=N)=O)cc3)c2)cc1` (stereo not shown) [Compound 136, N-[2-amino-5-(p-tolyl)phenyl]-4-(methylsulfonimidoyl)benzamide]: the IC50 on Recombinant HDAC1 was < 100 nM; at HDAC3/NCor2 it was > 2000 nM. On to `N=S(=O)(c1ccc(C(=O)Nc2cc(-c3ccc(F)cc3)ccc2N)cc1)c1cncc(CO)c1` (stereo not shown) [Compound 250, N-(4-amino-4′-fluoro-[1,1′-biphenyl]-3-yl)-4-(5-(hydroxymethyl)pyridine-3-sulfonimidoyl)benzamide], for which the IC50 on Recombinant HDAC1 is < 100 nM; against HDAC3/NCor2, 500 to 2000 nM.

`N=S(=O)(c1ccc(C(=O)Nc2cc(-c3ccc(F)cc3)ccc2N)cc1)c1cccnc1` (stereo not shown) [Compound 172, N-[2-amino-5-(4-fluorophenyl)phenyl]-4-(3-pyridylsulfonimidoyl)benzamide]: the IC50 is < 100 nM at Recombinant HDAC1 and 500 to 2000 nM at HDAC3/NCor2.

`N=S(=O)(c1ccc(C(=O)Nc2cc(-c3ccc(F)cc3)ccc2N)cn1)C1CC1` (stereo not shown) [Compound 179, N-[2-amino-5-(4-fluorophenyl)phenyl]-6-(cyclopropylsulfonimidoyl)pyridine-3-carboxamide]: the results for the IC50 at Recombinant HDAC1 and against HDAC3/NCor2 were < 100 nM and 500 to 2000 nM, respectively. On the same counts, the results for `CS(=N)(=O)c1ccc2oc(C(=O)Nc3cc(-c4ccc(F)cc4)ccc3N)cc2c1` (stereo not shown) [Compound 171, N-(4-amino-4′-fluoro-[1,1′-biphenyl]-3-yl)-5-(S-methylsulfonimidoyl)benzofuran-2-carboxamide] are < 100 nM and 100 to 500 nM. On the same counts, the results for `N=S(=O)(c1ccc(C(=O)Nc2cc(-c3ccc(F)cc3F)ccc2N)cc1)C1CC1` (stereo not shown) [Compound 118, N-[2-amino-5-(2,4-difluorophenyl)phenyl]-4-(cyclopropylsulfonimidoyl)benzamide] are < 100 nM and 500 to 2000 nM.

As for `CCN=S(C)(=O)c1ccc(C(=O)Nc2cc(-c3cccs3)ccc2N)cc1` (stereo not shown) [Compound 141, N-[2-amino-5-(2-thienyl)phenyl]-4-(N-ethyl-S-methyl-sulfonimidoyl)benzamide], the IC50 was < 100 nM on Recombinant HDAC1 and 500 to 2000 nM against HDAC3/NCor2. For `CS(=N)(=O)c1ccc(C(=O)Nc2cc(-c3ccc(C(F)(F)F)cc3)ccc2N)cc1` (stereo not shown) [Compound 142, N-[2-amino-5-[4-(trifluoromethyl)phenyl]phenyl]-4-(methylsulfonimidoyl)benzamide], in that order: 500 to 2000 nM and > 2000 nM. On the same counts, the results for `N=S(=O)(c1ccc(F)cc1)c1ccc(C(=O)Nc2cc(-c3ccc(F)cc3)ccc2N)cc1` (stereo not shown) [Compound 214, N-[2-amino-5-(4-fluorophenyl)phenyl]-4-[(4-fluorophenyl)sulfonimidoyl]benzamide] are < 100 nM and 500 to 2000 nM. On the same counts, the results for `N=[S@@](=O)(c1ccc(C(=O)Nc2cc(-c3ccc(F)cc3)ccc2N)cc1)C1CC1` (single isomer, unassigned) [Compound 146] are < 100 nM and 500 to 2000 nM. Turning to `CS(=N)(=O)c1ccc(C(=O)Nc2cc(C#CC3CC3)ccc2N)cc1` (stereo not shown) [Compound 155, N-[2-amino-5-(2-cyclopropylethynyl)phenyl]-4-(methylsulfonimidoyl)benzamide], the IC50 at Recombinant HDAC1 and at HDAC3/NCor2 was > 2000 nM in each case.

Take `C[S@](=N)(=O)c1ccc(C(=O)Nc2cc(-c3ccc(F)cc3)ccc2N)cc1` [Compound 134, (S)—N-[2-amino-5-(4-fluorophenyl)phenyl]-4-(methylsulfonimidoyl)benzamide]: the IC50 at Recombinant HDAC1 is < 100 nM; at HDAC3/NCor2 it was 500 to 2000 nM. For `N=S(=O)(c1ccc(C(=O)Nc2cc(-c3ccc(F)cc3)ccc2N)cc1)c1ccc(Cl)cn1` (stereo not shown) [Compound 213], the IC50 against HDAC3/NCor2 was in the range of 500 to 2000 nM. As for `C[S@@](=N)(=O)c1ccc(C(=O)Nc2cc(-c3ccc(F)cc3)ccc2N)cc1` [Compound 132, (R)—N-[2-amino-5-(4-fluorophenyl)phenyl]-4-(methylsulfonimidoyl)benzamide], the IC50 was < 100 nM at Recombinant HDAC1 and 500 to 2000 nM at HDAC3/NCor2.

For `CS(=N)(=O)c1ccc2sc(C(=O)Nc3cc(-c4ccc(F)cc4)ccc3N)cc2n1` (stereo not shown) [Compound 254, N-[2-amino-5-(4-fluorophenyl)phenyl]-5-(methylsulfonimidoyl)thieno[3,2-b]pyridine-2-carboxamide], the IC50 on Recombinant HDAC1 is < 100 nM; at HDAC3/NCor2, 100 to 500 nM. On the same counts, the results for `CS(=N)(=O)c1ccc(C(=O)Nc2cc(-c3cccs3)ccc2O)cc1` (stereo not shown) [Compound 123, N-[2-hydroxy-5-(2-thienyl)phenyl]-4-(methylsulfonimidoyl)benzamide] are < 100 nM and 500 to 2000 nM. For `N=S(=O)(c1ccc(C(=O)Nc2cc(-c3ccc(F)cc3)ccc2N)cc1)c1ccccn1` (stereo not shown) [Compound 166, N-[2-amino-5-(4-fluorophenyl)phenyl]-4-(2-pyridylsulfonimidoyl)benzamide], in that order: < 100 nM and 500 to 2000 nM. On the same counts, the results for `N=S(=O)(c1ccc(C(=O)Nc2cc(-c3cccs3)ccc2N)cc1)C1CC1` (stereo not shown) [Compound 103, N-[2-amino-5-(2-thienyl)phenyl]-4-(cyclopropylsulfonimidoyl)benzamide] are < 100 nM and 500 to 2000 nM.

For `Nc1ccc(-c2ccc(F)cc2)cc1NC(=O)c1ccc(S2(=O)=NCCC2)cc1` (stereo not shown) [Compound 154, N-[2-amino-5-(4-fluorophenyl)phenyl]-4-(1-oxo-4,5-dihydro-3H-isothiazol-1-yl)benzamide], the IC50 against HDAC3/NCor2 was 500 to 2000 nM.

For `CS(=N)(=O)Cc1ccc(C(=O)Nc2cc(-c3ccc(F)cc3)ccc2N)cn1` (stereo not shown) [Compound 201], the IC50 at HDAC3/NCor2 fell in the range of 500 to 2000 nM. `Nc1ccc(-c2ccc(F)s2)cc1NC(=O)c1ccc(S2(=O)=NCCC2)cc1` (stereo not shown) [Compound 160, N-[2-amino-5-(5-fluoro-2-thienyl)phenyl]-4-(1-oxo-4,5-dihydro-3H-isothiazol-1-yl)benzamide] came in with an IC50 at HDAC3/NCor2 of 500 to 2000 nM.

As for `Nc1ccc(-c2cccs2)cc1NC(=O)c1ccc(S2(=O)=NCCC2)cc1` (stereo not shown) [Compound 126, N-[2-amino-5-(2-thienyl)phenyl]-4-(1-oxo-4,5-dihydro-3H-isothiazol-1-yl)benzamide], on HDAC3/NCor2, the IC50 lay in the range of 500 to 2000 nM.

Regarding `Nc1ccc(-c2ccc(F)cc2)cc1NC(=O)c1ccc(S2(=O)=NCCCC2)cc1` (stereo not shown) [Compound 243, N-[2-amino-5-(4-fluorophenyl)phenyl]-4-(1-oxo-1thia-2-azacyclohexen-1-yl)benzamide], the IC50 against HDAC3/NCor2 fell in the range of 500 to 2000 nM. Still for that read-out and setting: the figure for `Nc1ccc(-c2ccc(F)cc2)cc1NC(=O)c1cc2cc(S3(=O)=NCCC3)ccc2s1` (stereo not shown) [Compound 204] is 500 to 2000 nM.
